The text below walks through data of US20110263647A1 (AMGEN INC., priority 2009, published 2011).

One data set concerns the target T1, PKBα (Homo sapiens, UniProt P31749).
T1 construct: fused on or other part: His6 tag is likely on the Upstate products
Description: PKB kinase assay (P33-labeled ATP, peptide substrate, filter plate). In kind it is biochemical. The conditions noted are these: with respect to PKBα. From the text: The kinase assay for evaluating PKB activity comprises active PKB enzymes, a PKB specific substrate, and P^33-labeled ATP. Two form of PKBα enzymes were used, the full length PKBα and a kinase domain of PKBα with pleckstrin domain (amino acids 1-117) deleted. Both PKB enzymes were obtained from Upstate cell signaling solutions (Cat.# 14-276 and 14-341). The PKB substrate used is a synthetic peptide (ARKRERTYSFGHHA (SEQ ID NO: 1)) as described in Obata et al., J. Biol. Chem. 275 (46), 36108-36115 (2000). The phosphorylated substrate was captured by a phosphocellulose membrane filter plate (MILLIPORE) and measured by a Wallac Microbeta liquid scintillation counter (Perkin Elmer). Table 1 provides the IC50 values obtained for each of the examples with respect to PKBα.

Data set [1] can be described thus: In vivo pharmacokinetics, IV and oral gavage. On the set-up: species or system male Sprague-Dawley rats. The conditions noted are these: rat; for FPO: Table 5; for Fpo (%): Table 6; for clearance / AUC(0-t) / Cmax / Vd: male, Sprague-Dawley, plasma; for Vd: read-out: Vss. An outline of the steps:
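Male Sprague-Dawley rats (n=3 per route) dosed 2 mg/kg IV in DMSO (fed) or 5 mg/kg by oral gavage in 1% Tween 80/2% HPMC, pH 2.0 (fasted). Serial plasma samples to 16 h quantified by LC-MS/MS. CL, Vss, AUC, t1/2 and %F derived by noncompartmental analysis.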

[2] abbreviates: IV 2 mg/kg, read-out: IV AUClast.
The mark [3] stands for this setting: PO 5 mg/kg, read-out: Oral AUClast.
The mark [4] stands for this setting: PO 5 mg/kg, read-out: Oral Cmax.

pIC50: −log10 of the molar value. Where a name gives a salt, the structure may show the parent alone. Read-outs that look alike come from different tables or passages of the source. Some results are limits rather than exact numbers.

T1 sequence (P31749 118-472 limits assumed): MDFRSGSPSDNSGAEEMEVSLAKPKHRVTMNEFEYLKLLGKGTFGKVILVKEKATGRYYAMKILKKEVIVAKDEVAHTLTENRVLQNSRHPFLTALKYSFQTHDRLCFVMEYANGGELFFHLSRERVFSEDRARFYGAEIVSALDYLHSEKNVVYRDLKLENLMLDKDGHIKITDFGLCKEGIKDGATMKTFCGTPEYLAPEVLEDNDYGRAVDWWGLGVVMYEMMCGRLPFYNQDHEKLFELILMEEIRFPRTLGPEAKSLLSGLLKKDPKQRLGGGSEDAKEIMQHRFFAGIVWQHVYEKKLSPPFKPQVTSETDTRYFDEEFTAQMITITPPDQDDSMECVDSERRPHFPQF

For orientation: pIC50 means −log10 of the IC50, conventionally taken in molar units. A high value points to a small IC50. In general, Cmax refers to the highest concentration seen after dosing. `N[C@H](CNc1ncc(-c2ccc3cnc(F)cc3c2)s1)Cc1ccc(C(F)(F)F)nc1` [Example 2, (2S)—N-(5-(3-Fluoro-6-isoquinolinyl)-1,3-thiazol-2-yl)-3-(6-(trifluoromethyl)-3-pyridinyl)-1,2-propanediamine] showed a negative-log IC50 (pIC50) on PKBα of over 7.30. In addition, the FPO in data set [1] (PO 5 mg/kg, IV 2 mg/kg) stood at 40%. For the same compound, the “Fpo (%)” value in data set [1] (PO 5 mg/kg, IV 2 mg/kg) is reported as 57%. In data set [1] (IV 2 mg/kg), the clearance was 12.1 mL/min/kg. Also, the AUC(0-t) in data set [1] (setting [2]) stood at 2370 ng·h/mL; in data set [1] (setting [3]) it was 2380 ng·h/mL. Moreover, the highest concentration (Cmax) in data set [1] (IV 2 mg/kg, read-out: IV Cmax) is 531 ng/mL; in data set [1] (setting [4]), 302 ng/mL. Also, the Vd in data set [1] (IV 2 mg/kg) came out at 5.19 L/kg.
`N[C@H](CNc1ncc(-c2ccc3cnc(F)cc3c2)s1)Cc1ccc(C(F)(F)F)cc1` [Example 4, N—((S)-2-Amino-3-(4-(trifluoromethyl)phenyl)propyl)-5-(3-fluoroisoquinolin-6-yl)thiazol-2-amine trifluoroacetate] gave a pIC50 on PKBα of over 7.30. Besides, in data set [1] (PO 5 mg/kg, IV 2 mg/kg), the FPO was 4% and the “Fpo (%)” value stood at 65%. In addition, in data set [1] (IV 2 mg/kg), the clearance is 21.6 mL/min/kg and the Vd was 2.59 L/kg. Moreover, the AUC(0-t) in data set [1] (setting [2]) was determined as 1530 ng·h/mL. For the same compound, in data set [1] (IV 2 mg/kg, read-out: IV Cmax), the maximum concentration (Cmax) was 959 ng/mL. The AUC(0-t) in data set [1] (setting [3]) was determined as 165 ng·h/mL. In addition, the Cmax in data set [1] (setting [4]) is 25 ng/mL.
The compound `CC(F)(F)c1ccc(C[C@H](N)CNc2ncc(-c3ccc4cnc(F)cc4c3)s2)cn1` [Example 7, N—((S)-2-Amino-3-(6-(1,1-difluoroethyl)pyridin-3-yl)propyl)-5-(3-fluoroisoquinolin-6-yl)thiazol-2-amine] had a pIC50 against PKBα of over 7.30. The same compound came in with an FPO in data set [1] (PO 5 mg/kg, IV 2 mg/kg) of 42%. For the same compound, in data set [1] (PO 5 mg/kg, IV 2 mg/kg), the “Fpo (%)” value is recorded as 47%. The compound further showed a clearance in data set [1] (IV 2 mg/kg) of 22.2 mL/min/kg. Moreover, the AUC(0-t) amounted to 1440 ng·h/mL in data set [1] (setting [2]) and 1500 ng·h/mL in data set [1] (setting [3]). Also, the peak concentration (Cmax) amounted to 432 ng/mL in data set [1] (IV 2 mg/kg, read-out: IV Cmax) and 216 ng/mL in data set [1] (setting [4]). In data set [1] (IV 2 mg/kg), the Vd was 6.22 L/kg.
`C[C@@H](c1ccc(C(F)(F)F)cc1)[C@H](N)CNc1ncc(-c2ccc3cnc(F)cc3c2)s1` [Example 10, N-((2S,3S)-2-Amino-3-(4-(trifluoromethyl)phenyl)butyl)-5-(3-fluoroisoquinolin-6-yl)thiazol-2-amine] showed a pIC50 against PKBα of over 7.30. For the same compound, in data set [1] (PO 5 mg/kg, IV 2 mg/kg), the FPO was 61% and the “Fpo (%)” value is listed as 52%. Moreover, in data set [1] (IV 2 mg/kg), the clearance was 12.5 mL/min/kg and the Vd was found to be 7.17 L/kg. Moreover, in data set [1] (setting [2]), the AUC(0-t) was 2040 ng·h/mL. The Cmax in data set [1] (IV 2 mg/kg, read-out: IV Cmax) came to 426 ng/mL. The AUC(0-t) in data set [1] (setting [3]) was 3100 ng·h/mL. For the same compound, the Cmax in data set [1] (setting [4]) amounted to 316 ng/mL.
`COCc1nc(NC[C@@H](N)Cc2ccc(C(F)(F)F)nc2)sc1-c1ccc2cnc(F)cc2c1` [Example 18, N—((S)-2-Amino-3-(6-(trifluoromethyl)pyridin-3-yl)propyl)-5-(3-fluoroisoquinolin-6-yl)-4-(methoxymethyl)thiazol-2-amine] had a pIC50 on PKBα of over 7.30. In addition, in data set [1] (PO 5 mg/kg, IV 2 mg/kg), the FPO was 40% and the “Fpo (%)” value was determined as 48%. In addition, in data set [1] (IV 2 mg/kg), the clearance is 17.6 mL/min/kg and the Vd is 8.08 L/kg. The AUC(0-t) in data set [1] (setting [2]) amounted to 1640 ng·h/mL. Further, the Cmax in data set [1] (IV 2 mg/kg, read-out: IV Cmax) worked out at 422 ng/mL. In data set [1] (setting [3]), the AUC(0-t) is 1640 ng·h/mL. Further, the Cmax in data set [1] (setting [4]) turned out to be 233 ng/mL.
On PKBα, `N[C@H](CNc1ncc(-c2ccc3cnc(F)cc3c2)s1)CN1CCC(C(F)(F)F)CC1` [Example 25, N—((R)-2-Amino-3-(4-(trifluoromethyl)piperidin-1-yl)propyl)-5-(3-fluoroisoquinolin-6-yl)thiazol-2-amine] had a pIC50 of 6.00 to 7.30. For the same compound, in data set [1] (PO 5 mg/kg, IV 2 mg/kg), the FPO turned out to be 55% and the “Fpo (%)” value stood at 34%. In addition, in data set [1] (IV 2 mg/kg), the clearance was 29.9 mL/min/kg and the Vd stood at 9.88 L/kg. The AUC(0-t) in data set [1] (setting [2]) stood at 1100 ng·h/mL. Further, the Cmax in data set [1] (IV 2 mg/kg, read-out: IV Cmax) worked out at 396 ng/mL. The AUC(0-t) in data set [1] (setting [3]) was 1500 ng·h/mL. In addition, the peak concentration (Cmax) in data set [1] (setting [4]) came to 58 ng/mL.
Consider `N[C@H](CNc1ncc(-c2ccc3cnc(F)cc3c2)s1)[C@@H](CO)c1ccc(C(F)(F)F)cc1` [Example 33, (2S,3S)-3-Amino-4-(5-(3-fluoroisoquinolin-6-yl)thiazol-2-ylamino)-2-(4-(trifluoromethyl)phenyl)butan-1-ol], for which the negative-log IC50 (pIC50) against PKBα is over 7.30. In data set [1] (PO 5 mg/kg, IV 2 mg/kg), the FPO is listed as 28%. Also, in data set [1] (PO 5 mg/kg, IV 2 mg/kg), the “Fpo (%)” value is given as 28%. The clearance in data set [1] (IV 2 mg/kg) was 9.02 mL/min/kg. Besides, the AUC(0-t) in data set [1] (setting [2]) was found to be 3130 ng·h/mL; in data set [1] (setting [3]), 2150 ng·h/mL. The Cmax in data set [1] (IV 2 mg/kg, read-out: IV Cmax) stood at 803 ng/mL; in data set [1] (setting [4]) it was 268 ng/mL. Also, in data set [1] (IV 2 mg/kg), the Vd was 3.41 L/kg.
On PKBα, `N[C@H](CCc1ncc(-c2ccc3cnc(F)cc3c2)s1)[C@@H](O)c1ccc(C(F)(F)F)cc1` [Example 36, (1S,2R)-2-Amino-4-(5-(3-fluoroisoquinolin-6-yl)thiazol-2-yl)-1-(4-(trifluoromethyl)phenyl)butan-1-ol trifluoroacetate] had a pIC50 of over 7.30. Also, in data set [1] (PO 5 mg/kg, IV 2 mg/kg), the FPO is reported as 64% and the “Fpo (%)” value is recorded as 66%. In addition, in data set [1] (IV 2 mg/kg), the clearance was 14.6 mL/min/kg and the Vd came out at 14.4 L/kg. Besides, in data set [1] (setting [2]), the AUC(0-t) worked out at 1600 ng·h/mL. In data set [1] (IV 2 mg/kg, read-out: IV Cmax), the Cmax was determined as 210 ng/mL. Further, the AUC(0-t) in data set [1] (setting [3]) amounted to 2560 ng·h/mL. Besides, the Cmax in data set [1] (setting [4]) was 206 ng/mL.
In turn, `CC(F)(F)c1ccc([C@H](O)[C@H](N)CNc2ncc(-c3ccc4cnc(F)cc4c3)s2)cc1` [Example 38, (1S,2R)-2-Amino-1-(4-(1,1-difluoroethyl)phenyl)-3-((5-(3-fluoro-6-isoquinolinyl)-1,3-thiazol-2-yl)amino)-1-propanol trifluoroacetate] showed a negative-log IC50 (pIC50) on PKBα of over 7.30. This compound also came in with an FPO in data set [1] (PO 5 mg/kg, IV 2 mg/kg) of 36%. Besides, the “Fpo (%)” value in data set [1] (PO 5 mg/kg, IV 2 mg/kg) came out at 45%. In data set [1] (IV 2 mg/kg), this compound showed a clearance of 8.53 mL/min/kg. The AUC(0-t) in data set [1] (setting [2]) amounted to 3010 ng·h/mL; in data set [1] (setting [3]), 2730 ng·h/mL. The Cmax was determined as 473 ng/mL in data set [1] (IV 2 mg/kg, read-out: IV Cmax) and 100 ng/mL in data set [1] (setting [4]). Further, in data set [1] (IV 2 mg/kg), the Vd stood at 9.48 L/kg.
Regarding `N[C@H](CNc1ncc(-c2ccc3cnc(F)cc3c2)s1)Cc1ccc(Cl)c(F)c1` [Example 44, (2S)-3-(4-Chloro-3-fluorophenyl)-N-1-(5-(3-fluoro-6-isoquinoliny)-1,3-thiazol-2-yl)-1-2-propanediamine], the pIC50 on PKBα is over 7.30. The compound further came in with an FPO in data set [1] (PO 5 mg/kg, IV 2 mg/kg) of 65%. Besides, in data set [1] (PO 5 mg/kg, IV 2 mg/kg), the “Fpo (%)” value is 67%. In data set [1] (IV 2 mg/kg), this compound had a clearance of 8.2 mL/min/kg. For the same compound, the AUC(0-t) was determined as 2030 ng·h/mL in data set [1] (setting [2]) and 3290 ng·h/mL in data set [1] (setting [3]). For the same compound, the maximum concentration (Cmax) in data set [1] (IV 2 mg/kg, read-out: IV Cmax) is 292 ng/mL; in data set [1] (setting [4]) it was 261 ng/mL. Further, the Vd in data set [1] (IV 2 mg/kg) is 11.4 L/kg.
`CC(F)(F)c1ccc(C[C@H](N)CCc2ncc(-c3ccc4cnc(F)cc4c3)s2)cn1` [Example 50] had a negative-log IC50 (pIC50) at PKBα of over 7.30. Further, in data set [1] (PO 5 mg/kg, IV 2 mg/kg), the FPO is listed as 103% and the “Fpo (%)” value is reported as 85%. Moreover, in data set [1] (IV 2 mg/kg), the clearance was 45.1 mL/min/kg and the Vd stood at 15.3 L/kg. The AUC(0-t) in data set [1] (setting [2]) amounted to 709 ng·h/mL. The Cmax in data set [1] (IV 2 mg/kg, read-out: IV Cmax) was 165 ng/mL. Moreover, the AUC(0-t) in data set [1] (setting [3]) was 1820 ng·h/mL. Besides, in data set [1] (setting [4]), the highest concentration (Cmax) came to 228 ng/mL.
